“Also recorded” adds a separate entry of the source. Non-standard residues stand in square brackets, D forms with d. Residues, ends and D or L forms follow the SMILES beside them. *: point of attachment. Phenylacetyl(2,3,4,5,6-F5) = O=C(Cc1c(F)c(F)c(F)c(F)c1F)*; Phe(F5) = N[C@@H](Cc1c(F)c(F)c(F)c(F)c1F)C(=O)O; Phe(4-Cl) = N[C@@H](Cc1ccc(Cl)cc1)C(=O)O; hArg = N=C(N)NCCCC[C@H](N)C(=O)O; 12Ado = NCCCCCCCCCCCC(=O)O; Nle = CCCC[C@H](N)C(=O)O; Orn = NCCC[C@H](N)C(=O)O; Abu = CC[C@H](N)C(=O)O
Tests used:
[1] = test system: NCI-N87 stomach cancer cells; assay: In vitro cell viability (CellTiter 96), N87; format: cell-based, human; details: Table 3B; 5 μM for 72 H; MIA-602 = 1
Method in brief: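 Human tumour lines were exposed to GHRH antagonist at 1, 2.5 or 5 μM for 72 h with medium refreshed every 48 h, after 24 h in low-serum (0.5% FBS) medium. Cell viability (CellTiter 96) was expressed as inhibition relative to MIA602.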

[2] = molecular target: T1, membrane GHRH-receptors on human anterior pituitary cells (Homo sapiens, UniProt Q02643); assay: Receptor binding, displacement of 125I-[His1,Nle27]-hGH-RH(1-32)NH2 on human pituitary membranes; details: for IC50: membrane receptors on human anterior pituitary cells, mean of two to three determinations, read-out: IC50
T1 construct: Human pituitary was purchased from the National Hormone and Peptide Program; tissue National Hormone and Peptide Program; host or cells: human pituitary (membrane fractions)
T1 sequence (Q02643 23-423): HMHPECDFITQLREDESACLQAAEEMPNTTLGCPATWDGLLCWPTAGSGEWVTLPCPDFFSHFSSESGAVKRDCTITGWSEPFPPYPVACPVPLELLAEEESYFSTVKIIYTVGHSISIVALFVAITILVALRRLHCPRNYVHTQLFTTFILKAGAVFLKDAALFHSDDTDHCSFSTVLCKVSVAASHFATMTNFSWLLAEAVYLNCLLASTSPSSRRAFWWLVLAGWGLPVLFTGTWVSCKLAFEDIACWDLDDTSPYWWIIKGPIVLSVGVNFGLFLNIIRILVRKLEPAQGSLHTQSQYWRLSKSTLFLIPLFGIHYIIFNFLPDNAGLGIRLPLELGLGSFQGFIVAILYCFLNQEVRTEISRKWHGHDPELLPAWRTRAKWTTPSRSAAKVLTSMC
Method in brief: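 Membrane fractions from human pituitary; peptides displace 125I-[His1,Nle27]-hGH-RH(1-32)NH2. IC50 is the dose giving 50% inhibition of specific binding, from duplicate tubes. Relative affinity is the ratio of test IC50 to hGH-RH(1-29)NH2 IC50.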

| SMILES | In vitro relative inhibitory potency in comparison to MIA-602, NCI-N87 [1] | IC50 [2] [nM] | binding affinity to membrane receptors of human pituitary cells (in words) ([2]; competitive binding, human pituitary membrane fractions) |
| --- | --- | --- | --- |
| CCCC[C@H](NC(=O)[C@@H](NC(=O)[C@H](CC(=O)O)NC(=O)[C@H](CCC(N)=O)NC(=O)[C@H](CC(C)C)NC(=O)[C@H](CC(C)C)NC(=O)[C@H](CCCCN)NC(=O)[C@H](CCCNC(=N)N)NC(=O)[C@H](C)NC(=O)[C@H](CO)NC(=O)[C@H](CC(C)C)NC(=O)[C@H](CCC(N)=O)NC(=O)[C@H](CC)NC(=O)[C@H](CC(C)C)NC(=O)[C@@H](NC(=O)[C@H](CCCCN)NC(=O)[C@H](CCCNC(=N)N)NC(=O)[C@H](Cc1ccc(OC)cc1)NC(=O)[C@H](CCCCNC(=N)N)NC(=O)[C@H](CC(N)=O)NC(=O)[C@@H](NC(=O)[C@H](Cc1ccc(Cl)cc1)NC(=O)[C@@H](NC(=O)[C@H](C)NC(=O)[C@H](CC(=O)O)NC(=O)[C@@H](CCCNC(=N)N)NC(=O)[C@H](Cc1ccc(O)cc1)NC(=O)CCCCCCCCCCCNC(=O)Cc1c(F)c(F)c(F)c(F)c1F)[C@@H](C)CC)[C@@H](C)O)C(C)C)[C@@H](C)CC)C(=O)N[C@H](CCCNC(=N)N)C(=O)N[C@@H](CCCCNC(=N)N)C(=O)NCCCCCCCCCCCC(N)=O [AVR-333, 5FPhAC-Ada-Tyr-DArg-Asp-Ala-Ile-Cpa-Thr-Asn-Har-Tyr(Me)-Arg-Lys-Val-Leu-Abu-Gln-Leu-Ser-Ala-Arg-Lys-Leu-Leu-Gln-Asp-Ile-Nle-DArg-Har-Ada-NH2] ({Phenylacetyl(2,3,4,5,6-F5)-12Ado}-Y[dR]DAI[Phe(4-Cl)]TN[hArg]Y(Me)RKVL[Abu]QLSARKLLQDI[Nle][dR][hArg][12Ado]-NH2) | 1.4 | 0.3 | – |
| CCCC[C@H](NC(=O)[C@@H](NC(=O)[C@H](CC(=O)O)NC(=O)[C@H](CCC(N)=O)NC(=O)[C@H](CC(C)C)NC(=O)[C@H](CC(C)C)NC(=O)[C@H](CCCCN)NC(=O)[C@H](CCCNC(=N)N)NC(=O)[C@H](C)NC(=O)[C@H](CO)NC(=O)[C@H](CC(C)C)NC(=O)[C@H](CCC(N)=O)NC(=O)[C@H](CC)NC(=O)[C@H](CC(C)C)NC(=O)[C@@H](NC(=O)[C@H](CCCCN)NC(=O)[C@H](CCCNC(=N)N)NC(=O)[C@H](Cc1c(F)c(F)c(F)c(F)c1F)NC(=O)[C@H](CCCCNC(=N)N)NC(=O)[C@H](C)NC(=O)[C@@H](NC(=O)[C@H](Cc1ccc(Cl)cc1)NC(=O)[C@@H](NC(=O)[C@H](C)NC(=O)[C@H](CC(=O)O)NC(=O)[C@@H](CCCNC(=N)N)NC(=O)[C@H](Cc1ccc(O)cc1)NC(=O)CCCCCCCCCCCNC(=O)Cc1c(F)c(F)c(F)c(F)c1F)[C@@H](C)CC)[C@@H](C)O)C(C)C)[C@@H](C)CC)C(=O)N[C@H](CCCNC(=N)N)C(=O)N[C@@H](CCCCNC(=N)N)C(=O)NCCCCCCCCCCCC(N)=O [AVR-353, 5FPhAC-Ada-Tyr-DArg-Asp-Ala-Ile-Cpa-Thr-Ala-Har-5FPhe-Arg-Lys-Val-Leu-Abu-Gln-Leu-Ser-Ala-Arg-Lys-Leu-Leu-Gln-Asp-Ile-Nle-DArg-Har-Ada-NH2] ({Phenylacetyl(2,3,4,5,6-F5)-12Ado}-Y[dR]DAI[Phe(4-Cl)]TA[hArg][Phe(F5)]RKVL[Abu]QLSARKLLQDI[Nle][dR][hArg][12Ado]-NH2) | 3.404 | 0.11 | higher binding affinity in comparison to MIA-602; also recorded: highest binding affinities |
| CCCC[C@H](NC(=O)[C@@H](NC(=O)[C@H](CC(=O)O)NC(=O)[C@H](CCC(N)=O)NC(=O)[C@H](CC(C)C)NC(=O)[C@H](CC(C)C)NC(=O)[C@H](CCCN)NC(=O)[C@H](Cc1c[nH]cn1)NC(=O)[C@H](C)NC(=O)[C@H](CO)NC(=O)[C@H](CC(C)C)NC(=O)[C@H](CCC(N)=O)NC(=O)[C@H](CC)NC(=O)[C@H](CC(C)C)NC(=O)[C@@H](NC(=O)[C@H](CCCN)NC(=O)[C@H](Cc1c[nH]cn1)NC(=O)[C@H](Cc1c(F)c(F)c(F)c(F)c1F)NC(=O)[C@H](CCCCNC(=N)N)NC(=O)[C@H](C)NC(=O)[C@@H](NC(=O)[C@H](Cc1ccc(Cl)cc1)NC(=O)[C@@H](NC(=O)[C@H](C)NC(=O)[C@H](CC(=O)O)NC(=O)[C@@H](CCCNC(=N)N)NC(=O)[C@H](Cc1ccc(O)cc1)NC(=O)CCCCCCCCCCCNC(=O)Cc1c(F)c(F)c(F)c(F)c1F)[C@@H](C)CC)[C@@H](C)O)C(C)C)[C@@H](C)CC)C(=O)N[C@H](CCCNC(=N)N)C(=O)N[C@@H](CCCCNC(=N)N)C(=O)NCCCCCCCCCCCC(=O)NC [AVR-543, 5FPhAC-Ada-Tyr-DArg-Asp-Ala-Ile-Cpa-Thr-Ala-Har-5FPhe-His-Orn-Val-Leu-Abu-Gln-Leu-Ser-Ala-His-Orn-Leu-Leu-Gln-Asp-Ile-Nle-DArg-Har-Ada-NHCH3] ({Phenylacetyl(2,3,4,5,6-F5)-12Ado}-Y[dR]DAI[Phe(4-Cl)]TA[hArg][Phe(F5)]H[Orn]VL[Abu]QLSAH[Orn]LLQDI[Nle][dR][hArg][12Ado]-NHMe) | 0.908 | 0.25 | – |

— patent US20210395327A1, “Growth Hormone-Releasing Hormone Antagonists and Uses Thereof” (United States Government As Represented By The Department …, priority 2019, published 2021)
